Test [1] deals with A549 human lung cancer cell. The test is described as follows: SRB cell proliferation assay, A549. Format: cell-based. The note with it: A549, 72 h, 3 days. Here is the method: (§1) ^a A series of indirubin derivatives were tested at five concentrations for their effects on various human cancer cell lines using SRB assay, as described in the Experimental Section.
(§2) Cells (A549, HT1080, HCT116, K562, SNU638, KB, MCF-7) were counted, diluted to 5×10^4 cells/mL with fresh medium (MEME, DMEM or RPMI containing 10% FBS), and added 190 μL of cell suspension to 96-well plates containing various concentrations of test compounds (10 μL in 10% aqueous DMSO). Test plates were incubated for 3 days at 37° C. in CO2 incubator. For zero day controls, cells were incubated for 30 min at 37° C. in CO2 incubator. All treatments were performed in triplicate. After the incubation periods, cells were fixed with 50 μL of cold 50% TCA at 4° C. for 30 min, washed 5 times with tap water, and air-dried. The fixed cells were stained with 0.4% SRB solution in 1% aqueous acetic acid at room temperature for 1 h. Free SRB solution was then removed by rinsing 5 times with 1% acetic acid, and air-dried. The bound dye was dissolved with 200 µL of 10 mM Tris-base (pH 10.0), and absorbance was determined at 515 nm using an ELISA microplate reader. Finally, the absorbance values obtained with each of the treatment procedures were averaged, and the average values obtained with the zero day control were subtracted.

In test [2] the target is T1, CDK2/cyclin E (Homo sapiens, UniProt P24941).
T1 construct: purchased Milipore (Billerica, Mass.)
The test is described as follows: CDK2/cyclin E kinase assay. The class given is biochemical. The following applies: for IC50: ten concentrations, dose response curves, read-out: CDK2/cyclin E inhibitory activity IC50; for CDK2 potency relative to compound 1: higher potency than 1. Here is the method:
CDK1/cyclin B, CDK2/cyclin E were purchased from Milipore (Billerica, Mass.). The kinase activity was tested in buffer (8 mM MOPS pH 7.0, 0.2 mM EDTA, 10 mM MgAcetate), with 0.1 mg/mL histone H1, in the presence of 45 µM [—^33P] ATP (500 cpm/pmol) for CDK1 or 120 μM [γ—^33P] ATP (500 cpm/pmol) for CDK2 in a final reaction volume of […]. The reaction was initiated by the addition of the MgATP mix. After incubation for 40 min at 30° C., the reaction was stopped by the addition of 5 μL of 3% phosphoric acid solution. 10 μL aliquots of supernatant were spotted onto 2.5 cm×3 cm pieces of Whatman […] phosphocellulose paper, and 20 s later, the filters were washed three times for 5 min in 75 mM phosphoric acid and once in methanol prior to drying. The […] filters were counted in the presence of 1 mL of ACS (Amersham) scintillation fluid. The activities are usually expressed as a percentage of the maximal activity, i.e., in the absence of inhibitors. Controls were applied with appropriate dilutions of DMSO.

Test [3] relates to HCT116 human colon cancer cell. The test is described as follows: SRB cell proliferation assay, HCT116. The class given is cell-based. The following applies: 3 days. Here is the method:
as §1, §2

In test [4] the test system is SNU638 human stomach cancer cell. The test is described as follows: SRB cell proliferation assay, SNU638. The class given is cell-based. The following applies: SNU-638, 72 h, 3 days. Here is the method:
as §1, §2

The subject of test [5] is HT1080 human fibro sarcoma cell. The test is described as follows: SRB cell proliferation assay, HT1080. Format: cell-based. The following applies: HT-1080, 72 h, 3 days. Here is the method:
as §1, §2

Test [6] concerns K562 human leukemia cell. The test is described as follows: SRB cell proliferation assay, K562. The class given is cell-based. The following applies: K562, 72 h, 3 days. Here is the method:
as §1, §2

The test system of test [7] is MCF-7 human breast cancer cell. The test is described as follows: SRB cell proliferation assay, MCF-7. Format: cell-based. The following applies: MCF7, 72 h, 3 days. Here is the method:
as §1, §2

Test [8] concerns KB human nasopharyngeal cancer cell. The test is described as follows: SRB cell proliferation assay, KB. Format: cell-based. The following applies: 72 h, 3 days. Here is the method:
as §1, §2

Test [9] concerns several human cancer cell lines. The test is described as follows: SRB cell proliferation assay, summary over cell lines. Format: cell-based. The note with it: Homo sapiens, range over cell lines; read-out: anti-proliferative IC50, range over cancer cell lines. Here is the method: as §1, §2

Values joined by “and” are separate entries in the source; they are usually repeats but may differ in a detail not shown here. Equal entries are not always repeated.

For `O=C1Nc2ccc(OC(F)(F)F)cc2/C1=C1/Nc2ccc(F)cc2C1=NO` [Compound 13d, (2′Z, 3′E)-5′-Fluoro-5-trifluoromethoxy-indirubin-3′-oxime], the IC50 in test [1] amounted to 19.9 µM; in test [2], 60.3 nM; in test [3] (Homo sapiens, HCT-116, 72 h), 1500 nM; in test [4], 1890 nM; in test [5] it was 3.95 µM; in test [6], 1.5 µM. Further, the IC50 in [7] came out at 4.1 µM; in test [8] it was 3.8 µM.

For `O=C1Nc2ccc([N+](=O)[O-])cc2/C1=C1/Nc2ccccc2C1=NO` [Compound 1, 5-nitroindirubin-3′-oxime, reference compound], the IC50 in test [2] was 7 nM and 7.35 nM.

In the case of `COc1ccc2c(c1)C(=NO)/C(=C1/C(=O)Nc3ccc([N+](=O)[O-])cc31)N2` [Compound 16a, (2′Z, 3′E)-5′-Methoxy-5-nitro-indirubin-3′-oxime], the IC50 in test [1] was greater than 20 µM; in test [2], 2950 nM; in test [3] (Homo sapiens, HCT-116, 72 h), greater than 20000 nM; in test [4], greater than 20000 nM; in test [5], greater than 20 µM; in [6], greater than 20 µM. Also, the IC50 in test [7] and in test [8] was greater than 20 µM each time.

Consider `O=C1Nc2ccc(F)cc2/C1=C1/Nc2ccc(O)cc2C1=NO` [Compound 11c, (2′Z, 3′E)-5′-Hydroxy-5-fluoro-indirubin-3′-oxime], for which the IC50 in test [1] was determined as 4.09 µM; in test [2], 2.25 nM; in [3] (Homo sapiens, HCT-116, 72 h), 1660 nM; in [4] it was 2110 nM; in test [5], 0.68 µM; in test [6] it was 1.4 µM. The IC50 in [7] came out at 2.6 µM; in test [8], 4.6 µM.

Take `Cc1ccc2c(c1)C(=NO)/C(=C1/C(=O)Nc3ccc(F)cc31)N2` [Compound 14c, (2′Z, 3′E)-5′-Methyl-5-fluoro-indirubin-3′-oxime]: the IC50 in test [1] was greater than 20 µM; in [3] (Homo sapiens, HCT-116, 72 h), greater than 20000 nM; in [4], 11500 nM; in test [5], greater than 20 µM; in test [6], greater than 20 µM; in test [7] it was 10.5 µM. The IC50 in test [8] is 10.6 µM.

Turning to `O=C1Nc2ccc(Cl)cc2/C1=C1/Nc2ccc(Cl)cc2C1=NO` [Compound 12a, (2′Z, 3′E)-5′-Chloro-5-chloro-indirubin-3′-oxime], the IC50 is greater than 20 µM in test [1]; 11.1 nM in test [2]; 1860 nM in test [3] (Homo sapiens, HCT-116, 72 h); 2570 nM in test [4]; 12.2 µM in test [5]; 17.2 µM in test [6]. The IC50 in [7] turned out to be 6.1 µM; in test [8], 11.9 µM.

With `O=C1Nc2ccc([N+](=O)[O-])cc2/C1=C1/Nc2ccc(F)cc2C1=NO` [Compound 13b, (2′Z, 3′E)-5′-Fluoro-5-nitro-indirubin-3′-oxime], the IC50 in test [1] is 0.57 µM; in test [2], 1.71 nM; in test [3], 280 nM; in test [3] (Homo sapiens, HCT-116, 72 h), roughly 300 nM; in [4], 940 nM; in test [5], 0.64 µM. Further, the IC50 is 0.46 µM in test [6], 0.9 µM in test [7], 200 to 3300 nM in test [9] and 0.9 µM in test [8]. In test [2], the “CDK2 potency relative to compound 1” value is reported as “approximately 4 fold”.

Take `Cc1ccc2c(c1)C(=NO)/C(=C1/C(=O)Nc3ccc(Cl)cc31)N2` [Compound 14a, (2′Z, 3′E)-5′-Methyl-5-chloro-indirubin-3′-oxime]: the IC50 in test [1] is greater than 20 µM; in [3] (Homo sapiens, HCT-116, 72 h), 18800 nM; in test [4] it was 12700 nM; in test [5], greater than 20 µM; in test [6], greater than 20 µM; in [7] it was 8.79 µM. Besides, in test [8], the IC50 was 5.18 µM.

Consider `O=C1Nc2ccc(OC(F)(F)F)cc2/C1=C1/Nc2ccc(Cl)cc2C1=NO` [Compound 12d, (2′Z, 3′E)-5′-Chloro-5-trifluoromethoxy-indirubin-3′-oxime], for which the IC50 in test [1] was greater than 20 µM; in test [2], 76.2 nM; in test [3] (Homo sapiens, HCT-116, 72 h), 3790 nM; in test [4], 2710 nM; in [5] it was 17.7 µM; in test [6], greater than 20 µM. The IC50 worked out at 4.2 µM in test [7] and 2.8 µM in test [8].

Regarding `O=C1Nc2ccc(F)cc2/C1=C1/Nc2ccc(F)cc2C1=NO` [Compound 13c, (2′Z, 3′E)-5′-Fluoro-5-fluoro-indirubin-3′-oxime], the IC50 in [1] turned out to be 10.3 µM; in test [2] it was 1.83 nM; in [3] (Homo sapiens, HCT-116, 72 h), 13500 nM; in test [4], 2230 nM; in test [5], 8.6 µM; in test [6], 15.9 µM. The IC50 in test [7] came to 6.57 µM; in test [8], 13.2 µM. Also, the “CDK2 potency relative to compound 1” value in [2] was “approximately 4 fold”.

As for `O=C1Nc2ccc(Cl)cc2/C1=C1/Nc2ccc(O)cc2C1=NO` [Compound 11a, (2′Z, 3′E)-5′-Hydroxy-5-chloro-indirubin-3′-oxime], the IC50 came out at 16.4 µM in test [1]; 5.27 nM in test [2]; 3500 nM in [3] (Homo sapiens, HCT-116, 72 h); 5140 nM in test [4]; 2.92 µM in test [5]; 12.2 µM in test [6]. Further, the IC50 in [7] amounted to 10.7 µM; in test [8] it was 10.2 µM.

As for `Cc1ccc2c(c1)C(=NO)/C(=C1/C(=O)Nc3ccc(OC(F)(F)F)cc31)N2` [Compound 14d, (2′Z, 3′E)-5′-Methyl-5-trifluoromethoxy-indirubin-3′-oxime], the IC50 in test [1] is greater than 20 µM; in test [3] (Homo sapiens, HCT-116, 72 h), greater than 20000 nM; in test [4], greater than 20000 nM; in test [5] it was greater than 20 µM; in test [6], greater than 20 µM; in test [7], 7.3 µM. This compound showed an IC50 in test [8] of 8.13 µM.

On to `O=C1Nc2ccc(OC(F)(F)F)cc2/C1=C1/Nc2ccc(O)cc2C1=NO` [Compound 11d, (2′Z, 3′E)-5′-Hydroxy-5-trifluoromethoxy-indirubin-3′-oxime], for which the IC50 in [1] was 16.9 µM; in test [2], 8.32 nM; in test [3] (Homo sapiens, HCT-116, 72 h), 2250 nM; in [4], 2960 nM; in test [5], 2.28 µM; in [6] it was 5.9 µM. In addition, the IC50 in test [7] was 4.2 µM; in test [8] it was 5.8 µM.

On to `O=C1Nc2ccc(F)cc2/C1=C1/Nc2ccc(Cl)cc2C1=NO` [Compound 12c, (2′Z, 3′E)-5′-Chloro-5-fluoro-indirubin-3′-oxime], for which the IC50 in [1] was found to be 18.9 µM; in test [2] it was 10.1 nM; in test [3] (Homo sapiens, HCT-116, 72 h), 1700 nM; in test [4], 2280 nM; in test [5], 3.62 µM; in [6], 14.7 µM. The results for the IC50 in test [7] and in test [8] were 3.5 µM and 3.6 µM, respectively.

As for `COc1ccc2c(c1)C(=NO)/C(=C1/C(=O)Nc3ccc(OC(F)(F)F)cc31)N2` [Compound 16c, (2′Z, 3′E)-5′-Methoxy-5-trifluoromethoxy-indirubin-3′-oxime], the IC50 was greater than 20 µM in test [1]; 8620 nM in test [2]; greater than 20000 nM in test [3] (Homo sapiens, HCT-116, 72 h); greater than 20000 nM in test [4]; greater than 20 µM in test [5]; greater than 20 µM in [6]. In addition, the results for the IC50 in [7] and in [8] were 13 µM and 20 µM, respectively.

For the compound `O=C1Nc2ccc(Cl)cc2/C1=C1/Nc2ccc(F)cc2C1=NO` [Compound 13a, (2′Z, 3′E)-5′-Fluoro-5-chloro-indirubin-3′-oxime], the IC50 in test [1] was greater than 20 µM; in test [2] it was 8.01 nM; in test [3] (Homo sapiens, HCT-116, 72 h), 3300 nM; in [4], 6320 nM; in test [5] it was 5.33 µM; in [6], 7.14 µM. In addition, the IC50 came out at 7 µM in test [7] and 9.1 µM in test [8].

Source of the values: US8859783B2, “Indirubin-3′-oxime derivatives as potent cyclin dependent kinase inhibitors” (Anygen Co., Ltd., priority 2010, dated 2014).
